Results: BigSolDB 2.1

Compound: OC[C@@H](O)[C@@H](O[C@H]1O[C@H](CO)[C@@H](O)[C@H](O)[C@H]1O)[C@H](O)[C@@H](O)CO
- solubility (mole fraction) (in DMF, 298.15 K): 0.00761
- solubility (mole fraction) (in DMF, 303.15 K): 0.00819
- solubility (mole fraction) (in DMF, 308.15 K): 0.00922
- solubility (mole fraction) (in DMF, 313.15 K): 0.0109
- solubility (mole fraction) (in DMF, 318.15 K): 0.0128
- solubility (mole fraction) (in DMF, 323.15 K): 0.0153
- solubility (mole fraction) (in ethanol, 298.15 K): 3.6e-05
- solubility (mole fraction) (in ethanol, 303.15 K): 4.4e-05
- solubility (mole fraction) (in ethanol, 308.15 K): 5.2e-05
- solubility (mole fraction) (in ethanol, 313.15 K): 6.2e-05
- solubility (mole fraction) (in ethanol, 318.15 K): 7.4e-05
- solubility (mole fraction) (in ethanol, 323.15 K): 9.4e-05
- solubility (mole fraction) (in isopropanol, 298.15 K): 1.9e-05
- solubility (mole fraction) (in isopropanol, 303.15 K): 2.3e-05
- solubility (mole fraction) (in isopropanol, 308.15 K): 2.7e-05
- solubility (mole fraction) (in isopropanol, 313.15 K): 3e-05
- solubility (mole fraction) (in isopropanol, 318.15 K): 3.8e-05
- solubility (mole fraction) (in isopropanol, 323.15 K): 5.1e-05
- solubility (mole fraction) (in methanol, 298.15 K): 0.00029
- solubility (mole fraction) (in methanol, 303.15 K): 0.000337
- solubility (mole fraction) (in methanol, 308.15 K): 0.000393
- solubility (mole fraction) (in methanol, 313.15 K): 0.000453
- solubility (mole fraction) (in methanol, 318.15 K): 0.000552
- solubility (mole fraction) (in methanol, 323.15 K): 0.000706
- solubility (mole fraction) (in water, 298.15 K): 0.0616
- solubility (mole fraction) (in water, 303.15 K): 0.0671
- solubility (mole fraction) (in water, 308.15 K): 0.0786
- solubility (mole fraction) (in water, 313.15 K): 0.0972
- solubility (mole fraction) (in water, 318.15 K): 0.111
- solubility (mole fraction) (in water, 323.15 K): 0.125
